Data as given in US12263156B2, “Use of small molecule inhibitors of the BfrB:Bfd interaction in biofilms” (priority 2020, dated 2025).

What was measured:
[1] = test system: P. aeruginosa clinical isolate PA_1076058; type: cell-based, Pseudomonas aeruginosa; conditions: 2-day old pellicles, 24 h, 1.2× the IC50 (KM-5-25 80 μM; KM-5-66 50 μM)
Protocol: (§1) Pellicle biofilms were grown as described above.
(§2) To investigate whether the compounds are also active against other strains of P. aeruginosa, pellicles of several clinical isolates from JMI Laboratories were cultured. […] To gain a broader understanding of the potential activity spectrum of the BfrB-Bfd inhibitors against P. aeruginosa strains, BLASTp^62 was used to find homologs of BfrB and Bfd sequences in the >4,400 P. aeruginosa genomes in the Pseudomonas Genome Database.^63 The results reveal two important facts: (i) The bfrB and bfd genes are adjacent to one another in all the P. aeruginosa strains, (ii) There is an extremely high level of conservation among the bfd and bfrB sequences. These findings evidence that the compounds of the present technology are broadly active against P. aeruginosa.

[2] = test system: P. aeruginosa clinical isolate PA_1081725; type: cell-based, Pseudomonas aeruginosa; conditions: 2-day old pellicles, 24 h, 1.2× the IC50 (KM-5-25 80 μM; KM-5-66 50 μM)
Protocol: as §1, §2

[3] = test system: EYFP-expressing P. aeruginosa PAO1 pellicle biofilms; assay: Determination of viable cells (CFU/mL) in pellicle biofilms; conditions: for % survival relative to cells in the pre-treated biofilm / viable cell count as % of the cells in the untreated pellicle / % survival, combination treatment: 24 h; for viable cell count as % of the cells in the untreated pellicle: KM-5-25 40 μM, KM-5-66 20 μM; for relative compound activity (rank order): pellicles treated 24 h with 50 μM of each analog
Protocol: (§3) Pellicle biofilms of EYFP-expressing P. aeruginosa PAO1 or clinical isolates were grown in PI media supplemented with 20 μM Fe. Starter cultures were diluted to OD600=0.001 in 4 mL media, placed in 35×10 mm petri dishes and incubated statically at 30° C. for 48 hours. The pellicles were transferred onto circular (1.5 cm diameter) glass coverslips by gently allowing the surface of a coverslip to contact a pellicle. The pellicle-adhered coverslip was washed in PBS and then deposited on top of 1.5 mL of AB challenge media contained in a well of a 12-well microplate, with the pellicle exposed to the media. […] The coverslip-adhered pellicles were exposed to challenge media at 30° C. for 24 hours, changing the challenge media every 12 hours by transferring the pellicle-adhered coverslip to a new plate containing pre-warmed challenge media.
Pellicle biofilms were grown as described above. Planktonic and loosely attached cells were washed (3 times) by immersing the coverslip-adhered pellicles (biofilm facing up) into a well of a 12-well plate containing 3 mL of PBS, and incubating (5 min) with gentle rocking. To remove the pellicle from the coverslip, break the extracellular matrix and release cells from the biofilm, the coverslip-adhered pellicle was placed in a 50 mL conical tube containing a 2 mL suspension of zirconia beads (0.1 mm diameter, BioSpec Products), 10 mL PBS, 0.2 μg/mL alginate lyase and 0.2 μg/mL DNAse. The resultant mixture was incubated at room temperature for 3 min, followed by vigorous vortexing for 4 min. After sedimentation of the zirconia beads, a 100 μL aliquot was used for serial dilution and plating on PIA plates for subsequent enumeration of viable cells (CFU/mL).
To assess the efficacy of antibiotics and compounds with an approach complementary to imaging with CLSM, dispersing biofilm cells for subsequent enumeration of viable cells (CFU/mL) was resorted to. […] The biofilms were then harvested, and the cells dispersed into sterile PBS by vortexing in the presence of zirconia beads, prior to plating the cell suspensions for subsequent enumeration of CFU/mL. […] A characteristic of cells in the VBNC state is their inability to develop into colonies on routine culture media, even though the cells remain viable for long periods of time.^58-59 Evidence that bacterial cells can enter the VBNC has been obtained by several distinct methods,^59 one of which is the utilization of bacteria engineered to constitutively express bioluminescent proteins, and using the bioluminescence as a reporter of metabolic activity.

BfrB (apo-BfrB) = BfrB (apo-BfrB) (Pseudomonas aeruginosa (strain ATCC 15692 / DSM 22644 / CIP 104116 / JCM 14847 / LMG 12228 / 1C / PRS 101 / PAO1), UniProt Q9HY79); assay: Fluorescence polarization measurement of dissociation constant (Kd); type: binding; conditions: for Kd: 100 mM potassium phosphate buffer pH 7.6, 1 mM TCEP, 0.5% DMSO, average ± SD
Protocol: Values were obtained in 100 mM potassium phosphate buffer (pH 7.6) containing 1 mM TCEP and 0.5% DMSO. The initial concentrations of KM-5-25 and KM-5-66 were 5 μM. The Kd values are the average and standard deviation from three independent measurements. […] The IC50 values are the average and the standard derivations from three independent experiments.
Prior to testing the effect that the 4-substituted isoindoline-1,3-dione derivatives might exert on P. aeruginosa cells, the strength of their interaction with BfrB was evaluated in vitro with a fluorescence polarization assay developed based on the intrinsic fluorescence of the isoindoline-1,3-dione moiety.

[4] = test system: EYFP-expressing P. aeruginosa PAO1 pellicle biofilms; assay: Pellicle biofilm assay (CLSM imaging, COMSTAT biomass); type: cell-based, Pseudomonas aeruginosa; conditions: 2-day old pellicles, 24 h; KM-5-25 80 μM, KM-5-66 50 μM (about 1.2× the IC50)
Protocol: as §3
Excess fluorescent dye was washed with PBS, the coverslip was mounted on a glass slide using 5 μL of SlowFade (Invitrogen, Carlsbad, CA) and the edges sealed with fingernail polish. CLSM image stacks (z-step size of 0.3 μm) were acquired with the aid of a Leica TCS SP8 microscope, as described above. Quantitative analysis was performed by determination of pellicle biomass using COMSTAT^54 and the Otsu method of automatic thresholding.^85
To expand the observations made with flow cell biofilms into a second biofilm model, the susceptibility of biofilms grown at the air-liquid interface (pellicles) was also studied.^56-57 Pellicle biofilms (henceforth pellicles) are an attractive alternative platform to study biofilms because pellicles are amenable to imaging by CLSM and to harvesting, which can be desirable for additional biofilm analysis.^26 To determine the susceptibility of pellicles to antibiotics or inhibitors of the BfrB-Bfd complex, 2-day old pellicles of EYFP-expressing P. aeruginosa cells were cultured in PI media supplemented with 20 μM Fe. The pellicles were transferred onto glass coverslips by allowing the surface of the coverslip to contact a pellicle.

[5] = 0.6× the IC50 (KM-5-25 40 μM; KM-5-66 30 μM)
[6] = 1.2× the IC50 (KM-5-25 80 μM; KM-5-66 50 μM)
[7] = analog at 1.2× the IC50 combined with colistin at 25× the MIC
[8] = analog at 1.2× the IC50 combined with colistin at 25× the MIC (20 μM)
[9] = analog at 1.2× the IC50 combined with colistin at 50× the MIC
[10] = analog at 1.2× the IC50 combined with colistin at 50× the MIC (40 μM)
[11] = analog at 1.2× the IC50 combined with tobramycin at 25× the MIC
[12] = analog at 1.2× the IC50 combined with tobramycin at 50× the MIC

Row | Structure (SMILES) | reduction of viable cells [1] | reduction of viable cells [2] | % survival relative to cells in the pre-treated biofilm [3, 5] [%] | % survival relative to cells in the pre-treated biofilm [3, 6] [%] | viable cell count as % of the cells in the untreated pellicle [3] [%] | log reduction of viable cells relative to colistin alone [3, 7] | % survival, combination treatment [3, 8] [%] | log reduction of viable cells relative to colistin alone [3, 9] [log] | % survival, combination treatment [3, 10] [%] | log reduction of viable cells relative to tobramycin alone [3, 11] | % survival, combination treatment [3, 11] [%] | log reduction of viable cells relative to tobramycin alone [3, 12] [log] | % survival, combination treatment [3, 12] [%] | relative compound activity (rank order) [3] | Kd (BfrB (apo-BfrB)) [nM] | fold higher binding affinity for BfrB relative to JAG-5-7 (BfrB (apo-BfrB); relative to JAG-5-7) [fold] | cells in the pellicle treated (killed), COMSTAT [4] [%] | % survival relative to cells in the pre-treated biofilm ([3]; 0.3× the IC50 (KM-5-66 15 μM)) | fold decrease of Kd relative to compound 16 (BfrB (apo-BfrB); relative to compound 16) [fold]
1 | O=C1NC(=O)c2c(NCc3cc(Cl)ccc3O)cccc21 [KM-5-25] | approximately 80% | approximately 80% | ~38 | ~25 | 42 | ~1 log | ~1 | ~0.7 | ~0.5 | approximately 2.5 log | ~0.5 | ~4.7 | ~0.003 | KM-5-66>KM-5-25>16>11 | 4000 ± 600 | ~2 | ~85 | – | –
2 | O=C1NC(=O)c2c(NCCCc3cc(O)cc(Cl)c3)cccc21 [KM-5-66] | approximately 80% | approximately 80% | ~21 | ~15 | 37 | approximately 1.7 log | ~0.3 | ~1.9 | ~0.02 | approximately 1.5 log | 5 | ~2 | 1 | KM-5-66>KM-5-25>16>11 | 350 ± 50 | – | ~85 | approximately 57% | ~4
